From ChEMBL document CHEMBL1201862, “PubChem BioAssay data set” (2004)
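Dose response: 5 concentrations. Exposure: 48 h. Format: 96-well plates. Endpoint: linear interpolation; highest concentration if not reached. GI50 is the concentration that inhibits growth by half.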 Active and inactive are the calls of the source. No stated cut-off is given here; in the data, active = GI50 up to about 1.1 µM and inactive = higher.

Tests used:
Experiment in all cases: NCI anticancer screen, dose series, 48 h
M19-MEL = tested on: M19-MEL
DMS-273 = tested on: DMS-273
HCT-15 = tested on: HCT-15
DMS-114 = tested on: DMS-114
EKVX = tested on: EKVX
UACC-257 = tested on: UACC-257
HOP-62 = tested on: HOP-62
LXFL 529 = tested on: LXFL 529
SF-295 = tested on: SF-295
OVCAR-8 = tested on: OVCAR-8
OVCAR-5 = tested on: OVCAR-5
K562 = tested on: K562
COLO 205 = tested on: COLO 205
HT-29 = tested on: HT-29
HCT-116 = tested on: HCT-116
OVCAR-4 = tested on: OVCAR-4
786-0 = tested on: 786-0
RXF 393 = tested on: RXF 393
HCC 2998 = tested on: HCC 2998
NCI-H522 = tested on: NCI-H522
SW-620 = tested on: SW-620
HL-60 = tested on: HL-60
ACHN = tested on: ACHN
SNB-19 = tested on: SNB-19
RPMI-8226 = tested on: RPMI-8226
SNB-78 = tested on: SNB-78
LOX IMVI = tested on: LOX IMVI
HOP-18 = tested on: HOP-18
XF498 = tested on: XF498
U-251 = tested on: U-251
M14 = tested on: M14
IGROV-1 = tested on: IGROV-1
SK-OV-3 = tested on: SK-OV-3
UO-31 = tested on: UO-31
CCRF-CEM = tested on: CCRF-CEM
SK-MEL-2 = tested on: SK-MEL-2
OVCAR-3 = tested on: OVCAR-3
KM12 = tested on: KM12
DLD-1 = tested on: DLD-1
Malme-3M = tested on: Malme-3M
A549 = tested on: A549
SN12C = tested on: SN12C
KM-20L2 = tested on: KM-20L2
UACC-62 = tested on: UACC-62
NCI-H226 = tested on: NCI-H226
SF-539 = tested on: SF-539
SK-MEL-5 = tested on: SK-MEL-5
NCI-H23 = tested on: NCI-H23
SK-MEL-28 = tested on: SK-MEL-28
TK-10 = tested on: TK-10
SNB-75 = tested on: SNB-75
MOLT-4 = tested on: MOLT-4
CAKI-1 = tested on: CAKI-1
SF-268 = tested on: SF-268
NCI-H460 = tested on: NCI-H460
A498 = tested on: A498
HOP-92 = tested on: HOP-92
NCI/ADR-RES = tested on: NCI/ADR-RES
MCF7 = tested on: MCF7

In the case of `Clc1cccc(-c2nnc(-c3nn(-c4ccccc4)c4nc5ccccc5nc34)o2)c1`, the GI50 (M19-MEL) is reported as > 100 µM (inactive), the GI50 (DMS-273) is reported as > 100 µM (inactive) and the GI50 (HCT-15) is reported as over 100 µM. For the same compound, the GI50 (DMS-114) was > 100 µM (inactive), the GI50 (EKVX) was > 100 µM (inactive) and the GI50 (UACC-257) was > 100 µM (inactive). The GI50 (HOP-62) was > 100 µM (inactive), the GI50 (LXFL 529) was 78.9 µM (inactive) and the GI50 (SF-295) was > 100 µM (inactive). The GI50 (OVCAR-8) was > 100 µM (inactive), the GI50 (OVCAR-5) was > 100 µM (inactive) and the GI50 (K562) was > 100 µM (inactive). For the same compound, the GI50 (COLO 205) was > 100 µM (inactive), the GI50 (HT-29) was > 100 µM (inactive) and the GI50 (HCT-116) was > 100 µM (inactive). For the same compound, the GI50 (OVCAR-4) was > 100 µM (inactive), the GI50 (786-0) was > 100 µM (inactive) and the GI50 (RXF 393) was 56.2 µM (inactive). The GI50 (HCC 2998) was > 100 µM (inactive), the GI50 (NCI-H522) was > 100 µM (inactive) and the GI50 (SW-620) was > 100 µM (inactive). The GI50 (HL-60) was > 100 µM (inactive), the GI50 (ACHN) was > 100 µM (inactive) and the GI50 (SNB-19) was > 100 µM (inactive). The GI50 (RPMI-8226) was > 100 µM (inactive), the GI50 (SNB-78) was > 100 µM (inactive) and the GI50 (LOX IMVI) was > 100 µM (inactive). For the same compound, the GI50 (HOP-18) was > 100 µM (inactive), the GI50 (XF498) was 43.8 µM (inactive) and the GI50 (U-251) was > 100 µM (inactive). For the same compound, the GI50 (M14) was > 100 µM (inactive), the GI50 (IGROV-1) was > 100 µM (inactive) and the GI50 (SK-OV-3) was > 100 µM (inactive). For the same compound, the GI50 (UO-31) was > 100 µM (inactive), the GI50 (CCRF-CEM) was > 100 µM (inactive) and the GI50 (SK-MEL-2) was > 100 µM (inactive). The GI50 (OVCAR-3) was > 100 µM (inactive), the GI50 (KM12) was > 100 µM (inactive) and the GI50 (DLD-1) was > 100 µM (inactive). The GI50 (Malme-3M) was > 100 µM (inactive), the GI50 (A549) was > 100 µM (inactive) and the GI50 (SN12C) was > 100 µM (inactive). For the same compound, the GI50 (KM-20L2) was > 100 µM (inactive), the GI50 (UACC-62) was > 100 µM (inactive) and the GI50 (NCI-H226) was > 100 µM (inactive). The GI50 (SF-539) was > 100 µM (inactive), the GI50 (SK-MEL-5) was 77.4 µM (inactive) and the GI50 (NCI-H23) was > 100 µM (inactive). The GI50 (SK-MEL-28) was > 100 µM (inactive), the GI50 (TK-10) was > 100 µM (inactive) and the GI50 (SNB-75) was 36.6 µM (inactive). The GI50 (MOLT-4) was > 100 µM (inactive), the GI50 (CAKI-1) was > 100 µM (inactive) and the GI50 (SF-268) was > 100 µM (inactive). The GI50 (NCI-H460) was > 100 µM (inactive).

`CCOC(=O)C[n+]1ccc2c([nH]c3cc(OC)ccc32)c1C` was tested, and the GI50 (M19-MEL) was > 100 µM (inactive), the GI50 (DMS-273) was > 100 µM (inactive) and the GI50 (HCT-15) was over 100 µM. For the same compound, the GI50 (A498) was > 81.5 µM (inactive), the GI50 (DMS-114) was > 83.2 µM (inactive) and the GI50 (EKVX) was > 100 µM (inactive). For the same compound, the GI50 (UACC-257) was > 100 µM (inactive), the GI50 (HOP-62) was > 78.3 µM (inactive) and the GI50 (SF-295) was 69.2 µM (inactive). For the same compound, the GI50 (OVCAR-8) was > 87.1 µM (inactive), the GI50 (OVCAR-5) was > 100 µM (inactive) and the GI50 (K562) was > 100 µM (inactive). For the same compound, the GI50 (COLO 205) was > 71.6 µM (inactive), the GI50 (HT-29) was > 100 µM (inactive) and the GI50 (HCT-116) was 61 µM (inactive). For the same compound, the GI50 (OVCAR-4) was > 100 µM (inactive), the GI50 (RXF 393) was > 100 µM (inactive) and the GI50 (HOP-92) was > 70.3 µM (inactive). For the same compound, the GI50 (HCC 2998) was > 100 µM (inactive), the GI50 (NCI-H522) was 68.2 µM (inactive) and the GI50 (SW-620) was > 100 µM (inactive). The GI50 (HL-60) was > 75.7 µM (inactive), the GI50 (SNB-19) was > 100 µM (inactive) and the GI50 (RPMI-8226) was > 100 µM (inactive). The GI50 (SNB-78) was > 100 µM (inactive), the GI50 (LOX IMVI) was 71.8 µM (inactive) and the GI50 (HOP-18) was > 100 µM (inactive). The GI50 (XF498) was 25.9 µM (inactive), the GI50 (U-251) was > 77.4 µM (inactive) and the GI50 (NCI/ADR-RES) was > 100 µM (inactive). For the same compound, the GI50 (IGROV-1) was > 100 µM (inactive), the GI50 (SK-OV-3) was > 100 µM (inactive) and the GI50 (UO-31) was > 39.4 µM (inactive). The GI50 (CCRF-CEM) was > 96.2 µM (inactive), the GI50 (SK-MEL-2) was > 100 µM (inactive) and the GI50 (OVCAR-3) was > 79.1 µM (inactive). For the same compound, the GI50 (KM12) was > 100 µM (inactive), the GI50 (DLD-1) was > 100 µM (inactive) and the GI50 (Malme-3M) was > 100 µM (inactive). For the same compound, the GI50 (MCF7) was > 95.5 µM (inactive), the GI50 (A549) was > 100 µM (inactive) and the GI50 (SN12C) was > 81.5 µM (inactive). For the same compound, the GI50 (KM-20L2) was > 65.2 µM (inactive), the GI50 (UACC-62) was > 100 µM (inactive) and the GI50 (NCI-H226) was 36.8 µM (inactive). The GI50 (SF-539) was > 100 µM (inactive), the GI50 (SK-MEL-5) was > 77.8 µM (inactive) and the GI50 (NCI-H23) was > 100 µM (inactive). For the same compound, the GI50 (SK-MEL-28) was > 100 µM (inactive), the GI50 (SNB-75) was > 100 µM (inactive) and the GI50 (MOLT-4) was > 67 µM (inactive). The GI50 (CAKI-1) was > 100 µM (inactive), the GI50 (SF-268) was > 100 µM (inactive) and the GI50 (NCI-H460) was > 88.1 µM (inactive).
